Measurements as given in ChEMBL document CHEMBL1201862, “PubChem BioAssay data set” (2004).
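In this assay, cells in 96-well plates receive the compound at five concentrations for 48 hours. Endpoints are linearly interpolated between the surrounding concentrations. The concentration for 50% growth inhibition is given as GI50.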 Active and inactive are the calls of the source. No stated cut-off is given here; in the data, active = GI50 up to about 1.1 µM and inactive = higher.

Experiments:
Test in all cases: NCI-60 cell line screen, 48 h
SR = tested on: SR
NCI-H460 = tested on: NCI-H460
SF-539 = tested on: SF-539
K562 = tested on: K562
NCI/ADR-RES = tested on: NCI/ADR-RES
MCF7 = tested on: MCF7
SW-620 = tested on: SW-620
RXF 393 = tested on: RXF 393
TK-10 = tested on: TK-10
EKVX = tested on: EKVX
DU-145 = tested on: DU-145
SF-295 = tested on: SF-295
UO-31 = tested on: UO-31
M14 = tested on: M14
CAKI-1 = tested on: CAKI-1
KM12 = tested on: KM12
786-0 = tested on: 786-0
RPMI-8226 = tested on: RPMI-8226
A498 = tested on: A498
MDA-MB-435 = tested on: MDA-MB-435

Measured: GI50

COc1ccc(/C=C(\C#N)c2ccccn2)cc1OC
inactive: SR 33.8 µM | NCI-H460 34.3 µM | SF-539 31.9 µM | K562 85.5 µM | NCI/ADR-RES 20.4 µM | MCF7 17.9 µM | SW-620 56.1 µM | RXF 393 23.7 µM | TK-10 63.7 µM | EKVX 5.4 µM | DU-145 32.1 µM | SF-295 26.8 µM | UO-31 29.8 µM | M14 > 100 µM | CAKI-1 60.7 µM | KM12 53.1 µM | 786-0 43.9 µM | RPMI-8226 45.7 µM

CC(=O)Nc1ccc2nc(-c3cccc(F)c3)cc(O)c2c1
inactive: SR 2.32 µM | NCI-H460 16.4 µM | SF-539 1.41 µM | K562 2.13 µM | NCI/ADR-RES 12.6 µM | MCF7 5.5 µM | SW-620 13.3 µM | A498 8.85 µM | RXF 393 > 31.6 µM | TK-10 > 100 µM | EKVX 75 µM | SF-295 18.8 µM | UO-31 24.1 µM | M14 4.95 µM | CAKI-1 14.5 µM | MDA-MB-435 1.6 µM | KM12 5.08 µM | 786-0 10.6 µM | RPMI-8226 20.6 µM

O=C(O[C@H](/C=C/c1ccccc1)P1(=O)N(Cc2ccccc2)[C@@H]2CCCC[C@H]2N1Cc1ccccc1)c1ccccc1
inactive: SR 3.44 µM | NCI-H460 3.46 µM | SF-539 2.98 µM | K562 3.24 µM | NCI/ADR-RES 3.18 µM | MCF7 3.63 µM | SW-620 3.57 µM | A498 5.57 µM | TK-10 38.9 µM | EKVX 3.96 µM | SF-295 3.79 µM | UO-31 4.5 µM | M14 4.11 µM | CAKI-1 2.16 µM | MDA-MB-435 3.63 µM | KM12 3.24 µM | 786-0 3.83 µM | RPMI-8226 2.33 µM

c1csc(-c2csc(-c3ccsc3)c2)c1
inactive: SR 97.3 µM | NCI-H460 > 100 µM | SF-539 > 55.5 µM | K562 > 100 µM | NCI/ADR-RES > 100 µM | MCF7 > 46.3 µM | SW-620 > 100 µM | A498 > 100 µM | RXF 393 > 46.9 µM | TK-10 > 100 µM | EKVX > 65.8 µM | SF-295 > 100 µM | UO-31 > 70.1 µM | M14 > 75.9 µM | CAKI-1 > 100 µM | MDA-MB-435 > 100 µM | KM12 > 100 µM | 786-0 > 100 µM | RPMI-8226 > 100 µM

NS(=O)(=O)c1cc(S(N)(=O)=O)c(NC(=O)N(c2ccccc2)c2ccccc2)c(Cl)c1Cl
inactive: SR 18.4 µM | NCI-H460 34.9 µM | K562 20.1 µM | NCI/ADR-RES 19 µM | MCF7 35 µM | SW-620 29.9 µM | TK-10 32.7 µM | EKVX 19.1 µM | SF-295 30.2 µM | UO-31 20.2 µM | M14 15.7 µM | CAKI-1 21.4 µM | MDA-MB-435 21.5 µM | KM12 20.3 µM | 786-0 30.1 µM | RPMI-8226 15.3 µM
